Data on 39 substances can be found in US20200157563A1, “METHODS OF PRODUCING HUMAN CANCER CELL MODELS AND METHODS OF USE” (The Broad Institute, Inc., priority 2017, published 2020).

Values joined by “and” are separate entries in the source; they are usually repeats but may differ in a detail not shown here. Identical values can stand only once.

The first data set deals with TERT promoter or exon 1. The data set can be described thus: Efficiency of tested Cas9 guide sequences (indel formation after RNP delivery). The class given is cell-based, human. As to conditions: 3 days post-editing; Cas9 guide targeting TERT promoter or exon 1; replicates 1 and 2 listed separately. How it is done:
Guide sequences for all genes were determined by empirically testing multiple guides per gene for cutting efficiency (on the extreme end, we tested around 40 Cas9 guide sequences for TERT before settling on one that works).
Applicants also determined guide RNAs for introducing indels at the TERT gene (FIG. 12).
Mutations were first engineered into CDKN2A (‘C’), BRAF (‘B’), and TERT (‘T’) (FIGS. 19A-19G). Lesions in these three genes happen early in melanoma pathogenesis and are exceptionally common, co-occurring events (Akbani et al. Cell 161:1681-1696 (2015)) that have been hypothesized to suffice for malignant transformation (Shain et al. Nat Rev Cancer 16:345-358 (2016); Shain et al. N Engl J Med 373:1926-1936 (2015)). After electroporation of Cas9 ribonucleoprotein complex (RNP) (Rimm et al. Am J Pathol 154:325-329 (1999)) targeting CDKN2A exon 2, the only exon shared by both p16 and p14 protein products, small insertions and deletions (‘indels’) in the gene underwent natural positive selection during cell culture from a 90-95% allele frequency at day three to nearly 100% by day 42 (FIG. 19A). Into these CDKN2A knockout (‘C’) melanocytes, Applicants next introduced the BRAF V600E mutation by co-delivering Cas9 RNP targeting BRAF exon 15 together with a homologous DNA donor encoding the V600E mutation. Recombinant adeno-associated virus (rAAV) was used to deliver the DNA donor (Rimm et al. Am J Pathol 154:325-329 (1999)) in order to increase the low editing efficiency over plasmid or single-stranded oligodeoxynucleotide donors (data not shown; Dever et al. Nature 539:384-389 (2016)). Over roughly 150 days in culture, the BRAF V600E allele increased from a frequency of 6% at day 3 to nearly 100% at day 155 (FIG. 19B). Finally, into these CDKN2A knockout, BRAF V600E mutant (‘CB’) melanocytes, Applicants introduced the −124C>T (also known as C228T) TERT promoter mutation by co-delivery of Cas9 RNP targeting TERT exon 1 together with a homologous DNA donor encoding TERT −124C>T. The −124C>T TERT promoter mutation allele shifted from a stable allele frequency of 3-5% over the first 30 days in culture to roughly 50% by day 75, and stayed at roughly 50% for more than 300 days of continuous culture (FIG. 19C; this 50% frequency is further discussed below). Engineering the TERT promoter mutation was the most technically difficult of these three mutations, and required testing forty different Cas9 guide sequences to identify a potent reagent for making double stranded breaks near the TERT promoter locus (Table 9), possibly due to the high G:C content or closed chromatin state at this locus (Yeh et al. Nat Commun 8:644 (2017)).
Cas9 protein, tracrRNA, and crRNAs (‘guides’, Table 20) were purchased and prepared according to manufacturer's instructions (IDT). To generate RNP complexes, 3-6 μg Cas9 and 45 pmol previously annealed crRNA:trRNA were incubated together for 10 minutes at 25° C. before delivery by electroporation. To target CDKN2A, two crRNAs were mixed at a molar ratio of 1:1 (22.5 pmol crRNA 1: 22.5 pmol crRNA 2) and incubated with 3 μg Cas9.
Electroporation was performed using the Lonza Nucleofector 4D System (program: EO-208) and P3 Primary Cell Nucleofector Kit (Lonza), according to manufacturer's instructions, with optional inclusion of 100 pmol electroporation enhancer (IDT 1075916). After electroporation, cells were incubated with 80 μL of warm media for 10 minutes at 37° C. to enhance recovery and were directly transferred into a tissue culture plate.
DNA was extracted using QuickExtract DNA Extraction Solution following recommended guidelines (Epicentre). Target genomic loci were amplified using gene-specific primers (Table 21) that included universal handles for later attachment of barcoded Illumina adaptors using an additional round of PCR. […]
Consider “1 (guide TGGGAGGGCCCGGAGGGGGC; chemistry not given here) [compound 1]”, for which the “% Indel Post-Editing” value was 0.1686% and 0.2057%.

Consider “2 (guide GTCCCCGGCCCAGCCCCCTC; chemistry not given here) [compound 2]”, for which the “% Indel Post-Editing” value was 0.29% and 0.6087%.

Take “3 (guide TCCCCGGCCCAGCCCCCTCC; chemistry not given here) [compound 3]”: the “% Indel Post-Editing” value is 0.2836% and 0.473%.

With “4 (guide GGGGCTGGGAGGGCCCGGAG; chemistry not given here) [compound 4]”, the “% Indel Post-Editing” value is 0.2787% and 0.05972%.

Consider “5 (guide GGGCTGGGAGGGCCCGGAGG; chemistry not given here) [compound 5]”, for which the “% Indel Post-Editing” value was 0.3738% and 0.4065%.

Consider “6 (guide GGGAGGGCCCGGAGGGGGCT; chemistry not given here) [compound 6]”, for which the “% Indel Post-Editing” value was 0.3562% and 0.3112%.

“7 (guide GAGGGGCTGGGAGGGCCCGG; chemistry not given here) [compound 7]”: the “% Indel Post-Editing” value was 0.2257% and 0.1728%.

“16 (guide GGCCGCGGAAAGGAAGGGGA; chemistry not given here) [compound 16]”: the “% Indel Post-Editing” value was 0.1942% and 0.09556%.

As to “17 (guide GAAACTCGCGCCGCGAGGAG; chemistry not given here) [compound 17]”, the “% Indel Post-Editing” value is 0.03391% and 0.163%.

With “18 (guide GCCCCTCCCCTTCCTTTCCG; chemistry not given here) [compound 18]”, the “% Indel Post-Editing” value was 2.299% and 1.045%.

On to “19 (guide TGCCTGAAACTCGCGCCGCG; chemistry not given here) [compound 19]”, for which the “% Indel Post-Editing” value is 0.3096% and 0.2587%.

Consider “20 (guide GCGGGGCCGCGGAAAGGAAG; chemistry not given here) [compound 20]”, for which the “% Indel Post-Editing” value is 0.1376% and 0.1734%.

As to “21 (guide AAACTCGCGCCGCGAGGAGA; chemistry not given here) [compound 21]”, the “% Indel Post-Editing” value is 0.5362% and 0.5957%.

As to “22 (guide GGCGGGGCCGCGGAAAGGAA; chemistry not given here) [compound 22]”, the “% Indel Post-Editing” value was 1.212% and 0.3044%.

“23 (guide GCCGCGGAAAGGAAGGGGAG; chemistry not given here) [compound 23]”: the “% Indel Post-Editing” value is 0.7353% and 0.8087%.

Turning to “24 (guide GGGCCGCGGAAAGGAAGGGG; chemistry not given here) [compound 24]”, the “% Indel Post-Editing” value is 0.19% and 0.2632%.

Consider “25 (guide GGAAAGGAAGGGGAGGGGCT; chemistry not given here) [compound 25]”, for which the “% Indel Post-Editing” value was 0.6945% and 1.088%.

For “26 (guide GCTGCGCAGCCACTACCGCG; chemistry not given here) [compound 26]”, the “% Indel Post-Editing” value is 9.609% and 9.23%.

Take “27 (guide TGGCCAGCGGCAGCACCTCG; chemistry not given here) [compound 27]”: the “% Indel Post-Editing” value was 13.61% and 13.93%.

Turning to “28 (guide GGGGAGCGCGCGGCATCGCG; chemistry not given here) [compound 28]”, the “% Indel Post-Editing” value was 1.175% and 1.846%.

“29 (guide GCTGCGCAGCAGGGAGCGCA; chemistry not given here) [compound 29]”: the “% Indel Post-Editing” value is 0.5165% and 0.5841%.

In the case of “31 (guide CCACGTTCGTGCGGCGCCTG; chemistry not given here) [compound 31]”, the “% Indel Post-Editing” value was 3.555% and 3.026%.

As to “32 (guide TGCCGCTGGCCACGTTCGTG; chemistry not given here) [compound 32]”, the “% Indel Post-Editing” value is 0.1665% and 0.1061%.

For the substance “33 (guide CGCCGCACGAACGTGGCCAG; chemistry not given here) [compound 33]”, the “% Indel Post-Editing” value was 2.925% and 2.489%.

Turning to “34 (guide GCGGTAGTGGCTGCGCAGCA; chemistry not given here) [compound 34]”, the “% Indel Post-Editing” value was 27.04% and 29.27%.

Regarding “35 (guide CTACCGCGAGGTGCTGCCGC; chemistry not given here) [compound 35]”, the “% Indel Post-Editing” value is 1.038% and 1.547%.

In the case of “36 (guide GCGGCAGCACCTCGCGGTAG; chemistry not given here) [compound 36]”, the “% Indel Post-Editing” value is 2.113% and 1.684%.

For the substance “37 (guide GGGAGCGCACGGCTCGGCAG; chemistry not given here) [compound 37]”, the “% Indel Post-Editing” value is 5.208% and 5.478%.

For the substance “38 (guide GGAGCGCACGGCTCGGCAGC; chemistry not given here) [compound 38]”, the “% Indel Post-Editing” value is 0.8353% and 1.797%.

Take “39 (guide GAGCGCACGGCTCGGCAGCG; chemistry not given here) [compound 39]”: the “% Indel Post-Editing” value was 6.049% and 7.137%.

In the case of “40 (guide GCTCGGCAGCGGGGAGCGCG; chemistry not given here) [compound 40]”, the “% Indel Post-Editing” value was 14.09% and 12.53%.

Still in this data set, the particulars now being: 5 days post-editing; Cas9 guide targeting TERT promoter or exon 1; replicates 1 and 2 listed separately.
For the substance “8 (guide GGGGGCTGGGCCGGGGACCC; chemistry not given here) [compound 8]”, the “% Indel Post-Editing” value was 0.1929% and 0.225%.

Take “9 (guide GGCTGGGCCGGGGACCCGGG; chemistry not given here) [compound 9]”: the “% Indel Post-Editing” value is 0.5674% and 0.398%.

As to “10 (guide GCTGGGCCGGGGACCCGGGA; chemistry not given here) [compound 10]”, the “% Indel Post-Editing” value was 0.3155% and 0.389%.

Turning to “11 (guide CTGGGCCGGGGACCCGGGAG; chemistry not given here) [compound 11]”, the “% Indel Post-Editing” value was 0.2288% and 0.2733%.

Take “12 (guide GCCGGGGACCCGGGAGGGGT; chemistry not given here) [compound 12]”: the “% Indel Post-Editing” value is 0.1682% and 0.08339%.

On to “13 (guide CCGGGGACCCGGGAGGGGTC; chemistry not given here) [compound 13]”, for which the “% Indel Post-Editing” value is 0.06603% and 0.05525%.

For the substance “14 (guide CGCCCCGTCCCGACCCCTCC; chemistry not given here) [compound 14]”, the “% Indel Post-Editing” value was 0.04851% and 0.09263%.

On to “15 (guide GCCCCGTCCCGACCCCTCCC; chemistry not given here) [compound 15]”, for which the “% Indel Post-Editing” value was 0.375%.
